Patent publication US12528788B2, “Pesticidally active benzene- and azine-amide compounds” (SYNGENTA CROP PROTECTION AG, priority 2018, dated 2026)

Assays:
Format in all cases: in vivo
Diabrotica balteata = experiment: Example B1: Diabrotica balteata (corn root worm), maize sprouts sprayed, L2 larvae; settings: 96 h, application rate of 200 ppm, 4 days after infestation, L2 larvae on maize sprouts, read-out: control in at least one of the two categories (mortality or growth inhibition)
Method: Example B1: Diabrotica balteata (Corn Root Worm)
Maize sprouts placed onto an agar layer in 24-well microtiter plates were treated with aqueous test solutions prepared from 10′000 ppm DMSO stock solutions by spraying. After drying, the plates were infested with L2 larvae (6 to 10 per well). The samples were assessed for mortality and growth inhibition in comparison to untreated samples 4 days after infestation.

Plutella xylostella [1] = experiment: Example B14: Plutella xylostella (diamondback moth), 96-well artificial diet; settings: 216 h, application rate of 500 ppm, 9 days after infestation
Method: Example B14: Plutella xylostella (Diamondback Moth)
96-well microtiter plates containing artificial diet were treated with aqueous test solutions, prepared from 10′000 ppm DMSO stock solutions, by a liquid handling robot. After drying, eggs (˜30 per well) were infested onto a netted lid which was suspended above the diet. The eggs hatch and L1 larvae move down to the diet. The samples were assessed for mortality 9 days after infestation.

Plutella xylostella [2] = experiment: Example B5: Plutella xylostella (diamond back moth), artificial diet, 24-well, eggs; settings: 192 h, application rate of 200 ppm, 8 days after infestation, read-out: control in at least one of the two categories (mortality or growth inhibition)
Method: Example B5: Plutella xylostella (Diamond Back Moth)
24-well microtiter plates with artificial diet were treated with aqueous test solutions prepared from 10′000 ppm DMSO stock solutions by pipetting. After drying, Plutella eggs were pipetted through a plastic stencil onto a gel blotting paper and the plate was closed with it. The samples were assessed for mortality and growth inhibition in comparison to untreated samples 8 days after infestation.

Spodoptera littoralis = experiment: Example B9: Spodoptera littoralis (Egyptian cotton leaf worm), cotton leaf discs sprayed, L1 larvae; settings: foliar, 72 h, application rate of 200 ppm, 3 days after infestation, read-out: control in at least one of the three categories (mortality, anti-feedant effect or growth inhibition)
Chilo suppressalis = experiment: Example B4: Chilo suppressalis (striped rice stemborer), artificial diet, L2 larvae; settings: 144 h, application rate of 200 ppm, 6 days after infestation, read-out: control in at least one of the three categories (mortality, anti-feedant effect or growth inhibition)
Method: Example B4: Chilo suppressalis (Striped Rice Stemborer)
24-well microtiter plates with artificial diet were treated with aqueous test solutions prepared from 10′000 ppm DMSO stock solutions by pipetting. After drying, the plates were infested with L2 larvae (6-8 per well). The samples were assessed for mortality, anti-feeding effect, and growth inhibition in comparison to untreated samples 6 days after infestation. Control of Chilo suppressalis by a test sample is given when at least one of the categories mortality, anti-feedant effect, and growth inhibition is higher than the untreated sample.

Myzus persicae = experiment: Example B13: Myzus persicae (green peach aphid), 96-well sucrose solution; settings: 120 h, application rate of 50 ppm, 5 days after infestation
Excerpt: Example B13: Myzus persicae (Green Peach Aphid)
Test compounds prepared from 10′000 ppm DMSO stock solutions were applied by a liquid handling robot into 96-well microtiter plates and mixed with a sucrose solution. Parafilm was stretched over the 96-well microtiter plate and a plastic stencil with 96 holes was placed onto the plate. Aphids were sieved into the wells directly onto the Parafilm. The infested plates were closed with a gel blotting card and a second plastic stencil and then turned upside down. The samples were assessed for mortality 5 days after infestation.

SMILES | percent control (mortality or growth inhibition) at 200 ppm (Diabrotica balteata) [%] | mortality at 500 ppm (Plutella xylostella [1]) [%] | percent control (mortality or growth inhibition) at 200 ppm (Plutella xylostella [2]) [%] | percent control (mortality, anti-feedant effect or growth inhibition) at 200 ppm (Spodoptera littoralis) [%] | percent control (mortality, anti-feedant effect or growth inhibition) at 200 ppm (Chilo suppressalis) [%] | mortality at 50 ppm (Myzus persicae) [%]
CC(c1cccnc1-c1ncccn1)N(CC1CC1)C(=O)c1cc(C(F)(F)F)cc(C(F)(F)F)c1 (stereo not drawn) [Compound P1, N-(cyclopropylmethyl)-N-[1-(2-pyrimidin-2-yl-3-pyridyl)ethyl]-3,5-bis(trifluoromethyl)benzamide] | ≥ 80 | ≥ 80 |  |  |  | 
CC(c1cnccc1-c1ncccn1)N(CC1CC1)C(=O)c1cc(C(F)(F)F)cc(C(F)(F)F)c1 (stereo not drawn) [Compound P2, N-(cyclopropylmethyl)-N-[1-(4-pyrimidin-2-yl-3-pyridyl)ethyl]-3,5-bis(trifluoromethyl)benzamide] |  | ≥ 80 | ≥ 80 |  |  | 
CC(c1ncccc1-c1ncccn1)N(CC1CC1)C(=O)c1cc(C(F)(F)F)cc(C(F)(F)F)c1 (stereo not drawn) [Compound P3, N-(cyclopropylmethyl)-N-[1-(3-pyrimidin-2-yl-2-pyridyl)ethyl]-3,5-bis(trifluoromethyl)benzamide] | ≥ 80 | ≥ 80 | ≥ 80 | ≥ 80 |  | 
CC(c1ncncc1-c1ncccn1)N(CC1CC1)C(=O)c1cc(C(F)(F)F)cc(C(F)(F)F)c1 (stereo not drawn) [Compound P6, N-(cyclopropylmethyl)-N-[1-(5-pyrimidin-2-ylpyrimidin-4-yl)ethyl]-3,5-bis(trifluoromethyl)benzamide] | ≥ 80 | ≥ 80 | ≥ 80 |  |  | 
CC(c1nccnc1-c1ccccn1)N(CC1CC1)C(=O)c1cc(C(F)(F)F)cc(C(F)(F)F)c1 (stereo not drawn) [Compound P7, N-(cyclopropylmethyl)-N-[1-[3-(2-pyridyl)pyrazin-2-yl]ethyl]-3,5-bis(trifluoromethyl)benzamide] | ≥ 80 | ≥ 80 | ≥ 80 | ≥ 80 |  | 
CC(c1cnc(Cl)cc1-c1ncccn1)N(CC1CC1)C(=O)c1cc(C(F)(F)F)cc(C(F)(F)F)c1 (stereo not drawn) [Compound P8, N-[1-(6-chloro-4-pyrimidin-2-yl-3-pyridyl)ethyl]-N-(cyclopropylmethyl)-3,5-bis(trifluoromethyl)benzamide] |  | ≥ 80 | ≥ 80 |  |  | 
CC(c1nc(F)ccc1-c1ncccn1)N(CC1CC1)C(=O)c1cc(C(F)(F)F)cc(C(F)(F)F)c1 (stereo not drawn) [Compound P9, N-(cyclopropylmethyl)-N-[1-(6-fluoro-3-pyrimidin-2-yl-2-pyridyl)ethyl]-3,5-bis(trifluoromethyl)benzamide] | ≥ 80 | ≥ 80 | ≥ 80 | ≥ 80 |  | 
CC(c1cnc(C(F)(F)F)cc1-c1ncccn1)N(CC1CC1)C(=O)c1cc(C(F)(F)F)cc(C(F)(F)F)c1 (stereo not drawn) [Compound P10, N-(cyclopropylmethyl)-N-[1-[4-pyrimidin-2-yl-6-(trifluoromethyl)-3-pyridyl]ethyl]-3,5-bis(trifluoromethyl)benzamide] |  | ≥ 80 | ≥ 80 | ≥ 80 |  | 
CC(c1nccnc1-c1ccccn1)N(CC1CC1)C(=O)c1cc(Cl)cc(C(F)(F)F)c1 (stereo not drawn) [Compound P11, 3-chloro-N-(cyclopropylmethyl)-N-[1-[3-(2-pyridyl)pyrazin-2-yl]ethyl]-5-(trifluoromethyl)benzamide] | ≥ 80 | ≥ 80 | ≥ 80 | ≥ 80 |  | 
CC(NC(=O)c1cc(C(F)(F)F)cc(C(F)(F)F)c1)c1nccnc1-c1ncccc1F (stereo not drawn) [Compound P13, N-[1-[3-(3-fluoro-2-pyridyl)pyrazin-2-yl]ethyl]-3,5-bis(trifluoromethyl)benzamide] | ≥ 80 |  | ≥ 80 | ≥ 80 | ≥ 80 | 
CC(NC(=O)c1cc(C(F)(F)F)cc(C(F)(F)F)c1)c1nccnc1-c1ccccn1 (stereo not drawn) [Compound P25, N-[1-[3-(2-pyridyl)pyrazin-2-yl]ethyI]-3,5-bis(trifluoromethyl)benzamide] | ≥ 80 | ≥ 80 | ≥ 80 | ≥ 80 |  | ≥ 80
CC(c1ccccc1-c1ncccn1)N(CC1CC1)C(=O)c1cc(C(F)(F)F)cc(C(F)(F)F)c1 (stereo not drawn) [Compound P26, N-(cyclopropylmethyl)-N-[1-(2-pyrimidin-2-ylphenyl)ethyl]-3,5-bis(trifluoromethyl)benzamide] |  | ≥ 80 | ≥ 80 |  |  | 
CC(c1ccccc1-c1ccccn1)N(CC1CC1)C(=O)c1cc(Cl)cc(C(F)(F)F)c1 (stereo not drawn) [Compound P27, 3-chloro-N-(cyclopropylmethyl)-N-[1-[2-(2-pyridyl)phenyl]ethyl]-5-(trifluoromethyl)benzamide] |  | ≥ 80 | ≥ 80 |  |  | 
CC(c1ccccc1-c1ccccn1)N(CC1CC1)C(=O)c1cc(C(F)(F)F)cc(C(F)(F)F)c1 (stereo not drawn) [Compound P28, N-(cyclopropylmethyl)-N-[1-[2-(2-pyridyl)phenyl]ethyl]-3,5-bis(trifluoromethyl)benzamide] |  | ≥ 80 |  |  |  | 
CC(NC(=O)c1cc(OCC(F)F)cc(C(F)(F)F)c1)c1nccnc1-c1ncc(C2CC2)cn1 (stereo not drawn) [Compound P32, N-[1-[3-(5-cyclopropylpyrimidin-2-yl)pyrazin-2-yl]ethyl]-3-(2,2-difluoroethoxy)-5-(trifluoromethyl)benzamide] |  |  | ≥ 80 | ≥ 80 | ≥ 80 | 
CC(NC(=O)c1cc(OC(F)F)cc(C(F)(F)F)c1)c1nccnc1-c1ncc(C2CC2)cn1 (stereo not drawn) [Compound P33, N-[1-[3-(5-cyclopropylpyrimidin-2-yl)pyrazin-2-yl]ethyl]-3-(difluoromethoxy)-5-(trifluoromethyl)benzamide] | ≥ 80 |  | ≥ 80 | ≥ 80 | ≥ 80 | 
CC(NC(=O)c1cc(OC(F)F)cc(C(F)(F)F)c1)c1nccnc1-c1ccc(F)cn1 (stereo not drawn) [Compound P35, 3-(difluoromethoxy)-N-[1-[3-(5-fluoro-2-pyridyl)pyrazin-2-yl]ethyl]-5-(trifluoromethyl)benzamide] |  |  | ≥ 80 |  |  | 
CC(NC(=O)c1cc(C(F)(F)F)cc(C(F)(F)F)c1)c1nccnc1-c1ccc(Cl)cn1 (stereo not drawn) [Compound P36, N-[1-[3-(5-chloro-2-pyridyl)pyrazin-2-yl]ethyl]-3,5-bis(trifluoromethyl)benzamide] |  |  |  |  | ≥ 80 | 
